Measurements as given in paper PMC5999578 (Journal of the American Chemical Society, 2018).

Molecular target: VioC (Streptomyces vinaceus, UniProt Q6WZB0)
Assay: X-ray crystal structure, […] A
Assay type: binding
Settings: vanadyl (ferryl mimic) in place of Fe, L-hArg

VioC, sequence (Q6WZB0 whole entry): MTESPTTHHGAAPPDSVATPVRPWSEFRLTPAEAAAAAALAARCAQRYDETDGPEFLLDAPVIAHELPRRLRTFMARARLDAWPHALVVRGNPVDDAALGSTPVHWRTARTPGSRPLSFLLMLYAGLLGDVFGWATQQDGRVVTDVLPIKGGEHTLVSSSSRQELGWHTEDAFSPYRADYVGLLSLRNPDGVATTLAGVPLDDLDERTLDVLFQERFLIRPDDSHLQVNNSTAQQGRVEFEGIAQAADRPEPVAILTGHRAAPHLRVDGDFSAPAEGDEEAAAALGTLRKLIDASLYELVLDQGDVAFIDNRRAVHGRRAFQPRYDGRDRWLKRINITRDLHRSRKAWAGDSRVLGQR

O=C(O)CCC(=O)O [succinate]
X-ray crystal structure, 1.70 A: crystals of the VioC•VO•succinate•L-hArg complex
